Results reported in patent US20050209106A1, “Substituted 4-(4-trifluoromethylpyrazolyl)pyrimidines” (Bayer CropScience GmbH, priority 2004, published 2005).

Key:
Type in all cases: in vivo
Stellaria media [1] = assay: Herbicidal pre-emergence action against harmful plants; conditions: dosage of 1000 g and less than 1000 g of active substance per hectare, visual scoring after 3 to 4 weeks, greenhouse
From the text: (§1) 1. Herbicidal Pre-Emergence Action Against Harmful Plants
(§2) Seeds of mono- and dicotyledonous harmful plants are put in sandy loam in cardboard pots and covered with soil. The compounds according to the invention, which are formulated in the form of wettable powders or emulsion concentrates, are then applied to the surface of the soil cover as an aqueous suspension or emulsion at an application rate of 600 to 800 l/ha (converted) in various dosages. After the treatment, the pots are placed in a greenhouse and kept under good growth conditions for the weeds. Visual scoring of the plant damage or emergence damage is carried out after the test plants have emerged after a test period of 3 to 4 weeks in comparison with untreated controls.

Lolium multiflorum = assay: as above; conditions: dosage of 1000 g and less than 1000 g of active substance per hectare, visual scoring after 3 to 4 weeks, greenhouse
From the text: as §1, §2

Setaria viridis = assay: as above; conditions: dosage of 1000 g and less than 1000 g of active substance per hectare, visual scoring after 3 to 4 weeks, greenhouse
From the text: as §1, §2

Amaranthus retroflexus [2] = assay: as above; conditions: dosage of 1000 g and less than 1000 g of active substance per hectare, visual scoring after 3 to 4 weeks, greenhouse
From the text: as §1, §2

Stellaria media [3] = assay: Herbicidal post-emergence action against harmful plants; conditions: three-leaf stage, dosage of 1000 g and less than 1000 g of active substance per hectare, scored after 3 to 4 weeks, greenhouse
Description: (§3) 2. Herbicidal Post-Emergence Action Against Harmful Plants
(§4) Seeds of mono- and dicotyledonous harmful plants are put into sandy loam in cardboard pots, covered with soil and grown in the greenhouse under good growth conditions. Two to three weeks after sowing, the test plants are treated at the three-leaf stage. The compounds according to the invention, which are formulated as wettable powders or as emulsion concentrates, are sprayed onto the surface of the green plant parts in various dosages at a water application rate of 600 to 800 l/ha (converted). After the test plants have been left to stand in the greenhouse for 3 to 4 weeks under optimum growth conditions, the action of the compounds is scored.

Sinapis arvensis = assay: as above; conditions: three-leaf stage, dosage of 1000 g and less than 1000 g of active substance per hectare, scored after 3 to 4 weeks, greenhouse
Description: as §3, §4

Avena fatua = assay: as above; conditions: three-leaf stage, dosage of 1000 g and less than 1000 g of active substance per hectare, scored after 3 to 4 weeks, greenhouse
Description: as §3, §4

Amaranthus retroflexus [4] = assay: as above; conditions: three-leaf stage, dosage of 1000 g and less than 1000 g of active substance per hectare, scored after 3 to 4 weeks, greenhouse
Description: as §3, §4

CCc1cc(-n2cc(C(F)(F)F)c(C)n2)nc(Oc2ccnc(C(F)(F)F)c2)n1 [1.26]
100%: action against Stellaria media (Stellaria media [1]) | action against Lolium multiflorum (Lolium multiflorum) | action against Setaria viridis (Setaria viridis) | action against Amaranthus retroflexus (Amaranthus retroflexus [2])

CCc1cc(-n2cc(C(F)(F)F)cn2)nc(Oc2cc(C(F)(F)F)nn2C)n1 [9.25]
100%: action against Stellaria media (Stellaria media [3]) | action against Sinapis arvensis (Sinapis arvensis) | action against Avena fatua (Avena fatua) | action against Amaranthus retroflexus (Amaranthus retroflexus [4])

Cc1cc(-n2cc(C(F)(F)F)cn2)nc(Oc2cc(C(F)(F)F)nn2C)n1 [9.13]
100%: action against Stellaria media (Stellaria media [1]) | action against Setaria viridis (Setaria viridis) | action against Amaranthus retroflexus (Amaranthus retroflexus [2])

COc1cc(-n2cc(C(F)(F)F)cn2)nc(Oc2ccnc(OC(F)F)c2)n1 [1.46]
100%: action against Stellaria media (Stellaria media [1]) | action against Lolium multiflorum (Lolium multiflorum) | action against Setaria viridis (Setaria viridis) | action against Amaranthus retroflexus (Amaranthus retroflexus [2]) | action against Stellaria media (Stellaria media [3]) | action against Sinapis arvensis (Sinapis arvensis) | action against Avena fatua (Avena fatua) | action against Amaranthus retroflexus (Amaranthus retroflexus [4])

Cc1cc(-n2cc(C(F)(F)F)c(C)n2)nc(Oc2cc(C(F)(F)F)nn2C)n1 [9.14]
100%: action against Stellaria media (Stellaria media [1]) | action against Setaria viridis (Setaria viridis) | action against Amaranthus retroflexus (Amaranthus retroflexus [2])

Cc1cc(-n2cc(C(F)(F)F)c(C)n2)nc(Oc2ccnc(C(F)(F)F)c2)n1 [1.14]
100%: action against Stellaria media (Stellaria media [1]) | action against Lolium multiflorum (Lolium multiflorum) | action against Setaria viridis (Setaria viridis) | action against Amaranthus retroflexus (Amaranthus retroflexus [2])

COc1cc(-n2ncc(C(F)(F)F)c2C)nc(Oc2ccnc(C(F)(F)F)c2)n1 [1.39]
100%: action against Stellaria media (Stellaria media [1]) | action against Lolium multiflorum (Lolium multiflorum) | action against Setaria viridis (Setaria viridis) | action against Amaranthus retroflexus (Amaranthus retroflexus [2])

Cc1cc(-n2cc(C(F)(F)F)cn2)nc(Oc2csc(C(F)(F)F)c2)n1 [7.13]
100%: action against Stellaria media (Stellaria media [1]) | action against Setaria viridis (Setaria viridis) | action against Amaranthus retroflexus (Amaranthus retroflexus [2])
